{"source": "patent US10111874B2", "about": "“Combination therapies for treatment of cancer” (Araxes Pharma LLC, priority 2014, dated 2018)", "key": {"[1]": {"tested_on": "H358 cells", "experiment": "Flow cytometry, cell cycle progression and apoptosis (sub-diploid cells)", "type": "cell-based", "settings": "single agents", "experimental": "B) The average apoptosis response of NCI-H358, NCI-H1792, NCI-H2122, and SW1573 cell lines generated by flow cytometry as described in A).\n(§1) Apoptosis was measured via flow cytometry. Gated populations=% of subdiploid apoptotic cells.\nas §1\nFIG. 7 depicts apoptosis in NCI-H358 cells treated with II-64 (10 μM), SN38 (5 nM), or a combination treatment (II-64+SN38). […] Apoptosis was measured via flow cytometry. Gated populations=% of subdiploid apoptotic cells.\nFlow cytometry was used to evaluate KRAS G12C inhibitor combination treatments.\nNext, flow cytometry was used to evaluate a KRAS G12C inhibitor in combination with the chemotherapeutic agents paclitaxel or docetaxel."}, "[2]": {"tested_on": "H358 cells (KRAS G12C)", "experiment": "Western blots of downstream KRAS signaling nodes and apoptosis markers in H358 cells", "type": "cell-based", "settings": "for G1 arrest and induction of apoptosis: H358 cells (FIG. 9, left panel); for apoptosis based on cleaved PARP levels / inhibition of downstream KRAS signaling nodes (Western blot): H358 cells; for apoptosis based on cleaved PARP levels: erlotinib 5 μM; for inhibition of downstream KRAS signaling nodes (Western blot): alone", "experimental": "FIG. 2 depicts western blot analysis of downstream targets of K-Ras signaling. […] Paclitaxel was used as a positive control. The western blots were probed with antibodies for p-AKT, p-ERK, total ERK, p-RSK, p-S6 and cleaved PARP. Cleaved PARP is indicative of apoptosis. B) A549 cells that express the G12S isoform of K-Ras were used a control for K-Ras G12C inhibitor specificity. A549 cells were treated as in A).\nWestern blots were used to analyze downstream KRAS signaling nodes (AKT, ERK, RSK, S6) and a marker of apoptosis (cleaved PARP).\nWestern blots were used to analyze downstream KRAS signaling nodes (AKT, ERK, RSK, S6) and a marker of apoptosis (cleaved PARP). […] Taxol (paclitaxel) was used as a positive control.\nWestern blots were used to analyze downstream KRAS signaling nodes (AKT, ERK, RSK, S6) and a marker of apoptosis (cleaved PARP). […] Caspase activity was measured using a standard caspase activity luminescence assay (Capase-Glo, Promega)."}, "[3]": {"biological_target": "T1, KRAS G12C 1-169, his-tagged protein, GDP-loaded (Homo sapiens, UniProt P01116, G12C)", "T1 construct": "KRAS G12C 1-169, his-tagged protein, GDP-loaded", "T1 sequence (P01116 1-169 isoform P01116-2 G12C)": "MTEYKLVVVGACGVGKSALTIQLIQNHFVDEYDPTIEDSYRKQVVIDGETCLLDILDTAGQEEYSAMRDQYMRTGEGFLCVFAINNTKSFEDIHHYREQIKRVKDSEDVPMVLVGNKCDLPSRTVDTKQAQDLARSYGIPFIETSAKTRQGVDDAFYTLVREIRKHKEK", "experiment": "Biochemical assay: covalent binding to KRAS G12C analyzed by mass spectrometry"}, "[4]": {"tested_on": "mutant cell lines (NCI-H23, SW1573)", "experiment": "Western blots, KRAS G12C inhibitor with ruxolitinib or momelotinib", "type": "cell-based", "settings": "I-272 1 μM; ruxolitinib or momelotinib 1 and 5 μM", "experimental": "Western blots were used to analyze downstream KRAS signaling nodes (AKT, ERK, S6), transcription factors (STAT3, IκBα), protein marker (TBK1) and a marker of apoptosis (cleaved PARP). Treatment of mutant cell lines (NCI-H23, SW1573) were tested with an exemplary KRAS G12C inhibitor (compound I-272, 1 μM) alone or in combination with one of ruxolitinib (JAK 1/2 inhibitor, 1 and 5 μM) or momelotinib (JAK1/2, TBK1, IKKe inhibitor, 1 and 5 μM). […] Further, there is synergistic p-S6 inhibition in each of the combinations. Synergistic apoptosis strongly occurred when TBK1 and non-canonical NFκB signaling is inhibited."}, "[5]": {"settings": "compounds 48-246, measured at 2 h"}, "[6]": {"settings": "24 hours, G12C inhibitors 10 μM, GDC0941 2 μM (FIG. 2)"}, "[7]": {"settings": "I-74 15 μM, PD0325901 100 nM, GDC0941 1 μM"}}, "data": [{"compound": "CS(=O)(=O)N1CCN(Cc2cc3nc(-c4cccc5[nH]ncc45)nc(N4CCOCC4)c3s2)CC1", "note": "[GDC0941, 2-(1H-indazol-4-yl)-6-(4-methanesulfonyl-piperazin-1-ylmethyl)-4-morpholin-4-yl-thieno[3,2-d]pyrimidine, reference compound]", "values": [{"measurement": "cell cycle arrest and induction of apoptosis (flow cytometry)", "setting": "[1]", "result": "G1 arrest with low to modest induction of apoptosis"}, {"measurement": "G1 arrest and induction of apoptosis", "setting": "[2]", "result": "G1 arrest with low to modest induction of apoptosis"}, {"measurement": "apoptosis based on c-caspase 3 levels", "setting": "[2]; H358 cells (FIG. 11)", "result": "does not induce robust apoptosis"}]}, {"compound": "C=CC(=O)N1CCN(c2ncnc3cc(-c4c(O)ccc5ccccc45)c(Cl)cc23)CC1", "note": "[Compound I-153, 1-(4-(6-chloro-7-(2-hydroxynaphthalen-1-yl)quinazolin-4-yl)piperazin-1-yl)prop-2-en-1-one]", "values": [{"measurement": "Binding %", "setting": "[3]; [5]", "result": "++++ (++++indicates binding activity greater than 75%)"}, {"measurement": "apoptosis based on cleaved PARP levels", "setting": "[2]; [6]", "result": "minimal cleaved PARP"}, {"measurement": "inhibition of downstream KRAS signaling nodes (Western blot)", "setting": "[2]; 24 hours, 10 μM (FIG. 2)", "result": "clear and nearly complete inhibition of p-ERK, p-RSK, and p-S6, with partial inhibition of p-AKT"}]}, {"compound": "C=CC(=O)N1CCN(c2ncnc3c(F)c(-c4ccccc4F)c(Cl)cc23)CC1", "note": "[Compound I-158, 1-(4-(6-chloro-8-fluoro-7-(2-fluorophenyl)quinazolin-4-yl)piperazin-1-yl)prop-2-en-1-one]", "values": [{"measurement": "Binding %", "setting": "[3]; [5]", "result": "++++ (++++indicates binding activity greater than 75%)"}, {"measurement": "apoptosis based on cleaved PARP levels", "setting": "[2]; [6]", "result": "minimal cleaved PARP"}, {"measurement": "inhibition of downstream KRAS signaling nodes (Western blot)", "setting": "[2]; 24 hours, 10 μM (FIG. 2)", "result": "clear and nearly complete inhibition of p-ERK, p-RSK, and p-S6, with partial inhibition of p-AKT"}]}, {"compound": "C=CC(=O)N1CC(N2CCN(C(=O)CNc3cc(CC)c(Cl)cn3)CC2)C1", "note": "[II-74, 1-(3-(4-(2-(5-chloro-4-ethylpyridin-2-ylamino)acetyl)-piperazin-1-yl)azetidin-1-yl)prop-2-en-1-one]", "values": [{"measurement": "Binding %", "setting": "[3]; determined at 2 hrs", "result": "+ (+indicates binding activity from 5% to 20%)"}, {"measurement": "G1 arrest and induction of apoptosis", "setting": "[2]", "result": "G1 arrest with low to modest induction of apoptosis"}]}, {"compound": "O=C(NOC[C@H](O)CO)c1ccc(F)c(F)c1Nc1ccc(I)cc1F", "note": "[PD0325901]", "values": [{"measurement": "G1 arrest and induction of apoptosis", "setting": "[2]", "result": "G1 arrest with low to modest induction of apoptosis"}, {"measurement": "apoptosis based on cleaved PARP levels", "setting": "[2]; [7]", "result": "does not induce robust apoptosis"}]}, {"compound": "N#CCNC(=O)c1ccc(-c2ccnc(Nc3ccc(N4CCOCC4)cc3)n2)cc1", "note": "[momelotinib, reference compound]", "values": [{"measurement": "apoptosis based on cleaved PARP levels", "setting": "[4]", "result": "does not induce robust apoptosis"}]}, {"compound": "C=CC(=O)N1CCN(c2ncnc3cc(-c4ccccc4O)c(Cl)cc23)CC1", "note": "[Compound I-74, 1-(4-(6-chloro-7-(2-hydroxyphenyl)quinazolin-4-yl)piperazin-1-yl)prop-2-en-1-one]", "values": [{"measurement": "Binding %", "setting": "[3]; [5]", "result": "+++ (+++indicates binding activity greater than 50% and up to 75%)"}, {"measurement": "inhibition of downstream KRAS signaling nodes (Western blot)", "setting": "[2]; 15 μM, 24 hours", "result": "clear and nearly complete inhibition of p-ERK, p-RSK, and p-S6"}, {"measurement": "apoptosis based on cleaved PARP levels", "setting": "[2]; [7]", "result": "minimal cleaved PARP"}]}, {"compound": "C=CC(=O)N1CCN(c2nc(OC3CCCOC3)nc3cc(-c4c(C)ccc5[nH]ncc45)c(Cl)cc23)CC1", "note": "(stereo not shown) [Compound 316, 1-(4-(6-chloro-7-(5-methyl-1H-indazol-4-yl)-2-(tetrahydro-2H-pyran-3-yloxy)quinazolin-4-yl)piperazin-1-yl)prop-2-en-1-one]", "values": [{"measurement": "Binding %", "setting": "[3]; compounds 247-342, measured at 30 min", "result": "++ (++indicates binding activity greater than 25% and up to 50%)"}]}, {"compound": "C=CC(=O)N1CCN(c2ncnc3cc(-c4c(O)cccc4C(F)(F)F)c(Cl)cc23)CC1", "note": "[Compound I-233, 1-(4-(6-chloro-7-(2-hydroxy-6-(trifluoromethyl)phenyl)quinazolin-4-yl)piperazin-1-yl)prop-2-en-1-one]", "values": [{"measurement": "Binding %", "setting": "[3]; [5]", "result": "+++ (+++indicates binding activity greater than 50% and up to 75%)"}]}, {"compound": "C=CC(=O)N1CCN(c2ncnc3cc(-c4cccc5onc(N)c45)c(Cl)cc23)CC1", "note": "[Compound I-149, 1-(4-(7-(3-aminobenzo[d]isoxazol-4-yl)-6-chloroquinazolin-4-yl)piperazin-1-yl)prop-2-en-1-one]", "values": [{"measurement": "Binding %", "setting": "[3]; [5]", "result": "+ (+indicates binding activity from 5% to 25%)"}]}, {"compound": "C=CC(=O)N1CCN(c2ncnc3cc(-c4cc(C(N)=O)ccc4F)c(Cl)cc23)CC1", "note": "[Compound I-155, 3-(4-(4-acryloylpiperazin-1-yl)-6-chloroquinazolin-7-yl)-4-fluorobenzamide]", "values": [{"measurement": "Binding %", "setting": "[3]; [5]", "result": "++ (++indicates binding activity greater than 25% and up to 50%)"}]}, {"compound": "C=CC(=O)N1CC(N2CCN(C(=O)CNc3cc(C)c(Cl)cc3O)CC2)C1", "note": "[II-32, 1-(3-(4-(2-(4-chloro-2-hydroxy-5-methylphenylamino)-acetyl)piperazin-1-yl)azetidin-1-yl)prop-2-en-1-one]", "values": [{"measurement": "Binding %", "setting": "[3]; determined at 24 hrs", "result": "++++ (++++indicates binding activity greater than 50%)"}]}, {"compound": "C=CC(=O)N1CCN(c2ncnc3cc(-c4c(O)cccc4F)c(Cl)cc23)CC1", "note": "[Compound I-138, 1-(4-(6-chloro-7-(2-fluoro-6-hydroxyphenyl)quinazolin-4-yl)piperazin-1-yl)prop-2-en-1-one]", "values": [{"measurement": "Binding %", "setting": "[3]; [5]", "result": "++++ (++++indicates binding activity greater than 75%)"}]}, {"compound": "C=CC(=O)N1CC(N2CCN(C(=O)CNc3cc(C(F)(F)F)c(Cl)cc3OC)CC2)C1", "note": "[II-37, 1-(3-(4-(2-(4-chloro-2-methoxy-5-(trifluoromethyl)-phenylamino)acetyl)-piperazin-1-yl)azetidin-1-yl)prop-2-en-1-one]", "values": [{"measurement": "Binding %", "setting": "[3]; determined at 24 hrs", "result": "++ (++indicates binding activity greater than 15% and up to 25%)"}]}, {"compound": "C=CC(=O)N1CC(N2CCN(C(=O)CNc3cc(O)c(Cl)cc3Cl)CC2)C1", "note": "[II-23, 1-(3-(4-(2-(2,4-dichloro-5-hydroxyphenyl-amino)acetyl)piperazin-1-yl)azetidin-1-yl)prop-2-en-1-one]", "values": [{"measurement": "Binding %", "setting": "[3]; determined at 24 hrs", "result": "+ (+indicates binding activity from 5% to 15%)"}]}]}
